Results taken from ChEMBL document CHEMBL2029244, “Synthesis and antimycobacterial activity of prodrugs of sulfur dioxide (SO2)” (Bioorg Med Chem Lett, 2012).
Converted amounts (≈) assume the structure as drawn.

How the values were obtained:
[1] = Drug degradation assessed as 2-hydroxyethylthio-2,4-dinitrobenzene production at pH 7.4 after 6 hrs in the presence of 2-mercaptoethanol; assay type: physicochemical; settings: buffer, pH 7.4, 6 h
[2] = Drug degradation assessed as decrease in compound level at pH 7.4 after 30 mins in the presence of 2-mercaptoethanol; assay type: physicochemical; settings: buffer, pH 7.4, 0.5 h
[3] = test system: Mycobacterium tuberculosis; test: Antimycobacterial activity against Mycobacterium tuberculosis H37Rv after 28 days; assay type: functional; settings: 672 h

With `COc1ccc(NS(=O)(=O)c2ccc([N+](=O)[O-])cc2[N+](=O)[O-])cc1` the Drug degradation [1] was “Active” and the Drug degradation [2] was “Active”.
In the case of `COc1ccc(CNS(=O)(=O)c2ccc([N+](=O)[O-])cc2[N+](=O)[O-])cc1`, the MIC [3] is reported as 0.25 µg/mL (≈ 0.681 µM).
Compound `O=[N+]([O-])c1ccc(S(=O)(=O)NCc2ccc(Cl)cc2)c([N+](=O)[O-])c1` has an MIC [3] of 0.4 µg/mL (≈ 1.08 µM).
`O=[N+]([O-])c1ccc(S(=O)(=O)NCc2ccc(C(F)(F)F)cc2)c([N+](=O)[O-])c1` gave an MIC [3] of 0.4 µg/mL (≈ 0.987 µM).
With `O=[N+]([O-])c1ccc(S(=O)(=O)NCc2ccccc2C(F)(F)F)c([N+](=O)[O-])c1` the MIC [3] was 1.56 µg/mL (≈ 3.85 µM).
`COc1ccccc1NS(=O)(=O)c1ccc([N+](=O)[O-])cc1[N+](=O)[O-]` showed an MIC [3] of 3.13 µg/mL (≈ 8.86 µM).
`O=[N+]([O-])c1ccc(S(=O)(=O)Nc2ccc(F)cc2)c([N+](=O)[O-])c1` gave an MIC [3] of 6.25 µg/mL (≈ 18.3 µM).
With `N#Cc1ccc(NS(=O)(=O)c2ccc([N+](=O)[O-])cc2[N+](=O)[O-])cc1` the MIC [3] was over 50 µg/mL.
In the case of `C[C@H](NS(=O)(=O)c1ccc([N+](=O)[O-])cc1[N+](=O)[O-])c1ccccc1`, the MIC [3] is reported as 1.56 µg/mL (≈ 4.44 µM).
For `C[C@@H](NS(=O)(=O)c1ccc([N+](=O)[O-])cc1[N+](=O)[O-])c1ccccc1`, the MIC [3] was 1.56 µg/mL (≈ 4.44 µM).
`O=[N+]([O-])c1ccc(S(=O)(=O)NCCc2ccccc2)c([N+](=O)[O-])c1` gave an MIC [3] of 0.4 µg/mL (≈ 1.14 µM).
`O=[N+]([O-])c1ccc(S(=O)(=O)N(Cc2ccccc2)c2ccccc2)c([N+](=O)[O-])c1` showed an MIC [3] of 1.56 µg/mL (≈ 3.77 µM).
`CN(c1ccccc1)S(=O)(=O)c1ccc([N+](=O)[O-])cc1[N+](=O)[O-]` gave an MIC [3] of 0.78 µg/mL (≈ 2.31 µM).
In the case of `CN(CCc1ccccc1)S(=O)(=O)c1ccc([N+](=O)[O-])cc1[N+](=O)[O-]`, the MIC [3] is reported as 0.78 µg/mL (≈ 2.13 µM).
In the case of `O=[N+]([O-])c1ccc(S(=O)(=O)N(CCc2ccccc2)Cc2ccccc2)c([N+](=O)[O-])c1`, the MIC [3] is reported as 3.13 µg/mL (≈ 7.09 µM).
`CC[C@@H](CO)NCCN[C@@H](CC)CO` [ETHAMBUTOL] gave an MIC [3] of 1.56 µg/mL (≈ 7.64 µM).
In the case of `NNC(=O)c1ccncc1` [ISONIAZID], the MIC [3] is reported as 0.05 µg/mL (≈ 0.365 µM).
`NC(=O)c1cnccn1` [PYRAZINAMIDE] showed an MIC [3] of 6.25 µg/mL (≈ 50.8 µM).
